Literature values in US8753875B2, “Compositions and means for diagnosing microbial infections” (priority 2007, dated 2014).
Like-named read-outs stand apart in the source and are kept apart here.

Experiments:
E. coli [1] = settings: 1142 E. coli outpatient urinary isolates, USA and Canada; cited from earlier work
E. coli [2] = settings: cited from earlier work

Molecule | Overall resistance in E. coli (E. coli [1]) [%] | Antimicrobial resistance of E. coli (resistance in percent) (E. coli [2]; Austria, n 126) [%] | Antimicrobial resistance of E. coli (resistance in percent) (E. coli [2]; Belgium, n 137) [%] | Antimicrobial resistance of E. coli (resistance in percent) (E. coli [2]; Canada, n 166) [%] | Antimicrobial resistance of E. coli (resistance in percent) (E. coli [2]; Denmark, n 85) [%] | Antimicrobial resistance of E. coli (resistance in percent) (E. coli [2]; Finland, n 182) [%] | Antimicrobial resistance of E. coli (resistance in percent) (E. coli [2]; France, n 199) [%] | Antimicrobial resistance of E. coli (resistance in percent) (E. coli [2]; Germany, n 138) [%] | Antimicrobial resistance of E. coli (resistance in percent) (E. coli [2]; Greece, n 132) [%] | Antimicrobial resistance of E. coli (resistance in percent) (E. coli [2]; Ireland, n 154) [%] | Antimicrobial resistance of E. coli (resistance in percent) (E. coli [2]; Luxembourg, n 24) [%] | Antimicrobial resistance of E. coli (resistance in percent) (E. coli [2]; Norway, n 168) [%] | Antimicrobial resistance of E. coli (resistance in percent) (E. coli [2]; Portugal, n 86) [%] | Antimicrobial resistance of E. coli (resistance in percent) (E. coli [2]; Spain, n 191) [%] | Antimicrobial resistance of E. coli (resistance in percent) (E. coli [2]; Sweden, n 193) [%] | Antimicrobial resistance of E. coli (resistance in percent) (E. coli [2]; Switzerland, n 122) [%] | Antimicrobial resistance of E. coli (resistance in percent) (E. coli [2]; The Netherlands, n 195) [%] | Antimicrobial resistance of E. coli (resistance in percent) (E. coli [2]; Total, n 2478) [%] | Antimicrobial resistance of E. coli (resistance in percent) (E. coli [2]; United Kingdom, n 180) [%]
trimethoprim/sulfamethoxazole [SXT] | 21.3 | 9.5 | 14.6 | 12.0 | 8.2 | 4.9 | 15.1 | 21.0 | 11.4 | 20.8 | 16.7 | 11.3 | 26.7 | 25.7 | 8.3 | 18.9 | 10.3 | 14.1 | 12.2
Cc1cc(NS(=O)(=O)c2ccc(N)cc2)no1 [SUL, 4-amino-N-(5-methylisoxazol-3-yl)-benzenesulfonamide] |  | 25.4 | 32.8 | 25.3 | 21.2 | 15.4 | 31.7 | 34.8 | 19.7 | 40.3 | 25.0 | 25.0 | 44.2 | 48.7 | 16.6 | 31.1 | 25.6 | 29.1 | 31.7
CNC(C)C1CCC(N)C(OC2C(N)CC(N)C(OC3OCC(C)(O)C(NC)C3O)C2O)O1 (stereo not drawn) [GEN, 2-[4,6-diamino-3-[3-amino-6-(1-methylaminoethyl)tetrahydropyran-2-yl]oxy-2-hydroxy-cyclohexoxy]-5-methyl-4-methylamino-tetrahydropyran-3,5-diol] |  | 0.8 | 0.7 | 0.6 | 0 | 0.5 | 0 | 0.7 | 0.8 | 0.6 | 0 | 0 | 3.5 | 4.7 | 0 | 3.3 | 0.5 | 1.0 | 0
O=C(O)c1cn(C2CC2)c2cc(N3CCNCC3)c(F)cc2c1=O [CIP, 1-cyclopropyl-6-fluoro-4-oxo-7-piperazin-1-yl-quinoline-3-carboxylic acid] | 5.5 | 0 | 2.9 | 0 | 0 | 0.5 | 2.0 | 2.2 | 1.5 | 0 | 4.2 | 0 | 5.8 | 14.7 | 0 | 2.5 | 2.1 | 2.3 | 0.6
CCn1cc(C(=O)O)c(=O)c2ccc(C)nc21 [NAL, 1-ethyl-7-methyl-4-oxo-[1,8]naphthyridine-3-carboxylic acid] |  | 2.4 | 6.6 | 0.6 | 3.5 | 1.6 | 3.5 | 3.6 | 6.8 | 1.9 | 8.3 | 1.2 | 11.6 | 26.7 | 2.6 | 6.6 | 5.1 | 5.4 | 2.2
C[C@@H]1O[C@@H]1P(=O)(O)O [FOF, [(2R,3S)-3-methyloxiran-2-yl]phosphonic acid] |  | 0 | 0.7 | 0.6 | 1.2 | 1.1 | 1.0 | 0 | 1.5 | 1.3 | 0 | 1.2 | 0 | 0.5 | 0.5 | 0.8 | 0.5 | 0.7 | 0
C[C@H]1COc2c(N3CCN(C)CC3)c(F)cc3c(=O)c(C(=O)O)cn1c23 [levofloxacin, (−)-(S)-9-fluoro-2,3-dihydro-3-methyl-10-(4-methyl-1-piperazinyl)-7-oxo-7H-pyrido [1,2,3-de]-1,4-benzoxazine-6-carboxylic acid] | 5.1 |  |  |  |  |  |  |  |  |  |  |  |  |  |  |  |  |  | 
co-amoxiclav [AMC] |  | 2.4 | 2.9 | 3.6 | 1.2 | 4.9 | 1.5 | 2.2 | 0.8 | 5.8 | 0 | 3.6 | 9.3 | 4.2 | 5.7 | 2.5 | 2.6 | 3.4 | 2.8
CC1=C(C(=O)O)N2C(=O)C(NC(=O)C(N)c3ccc(O)cc3)C2SC1 (stereo not drawn) [CFR, 8-[2-amino-2-(4-hydroxyphenyl)-acetyl]amino-4-methyl-7-oxo-2-thia-6-azabicyclo [4.2.0] oct-4-ene-5-carboxylic acid] |  | 0.8 | 0.7 | 1.8 | 1.2 | 1.6 | 1.0 | 1.4 | 3.0 | 0.6 | 0 | 2.4 | 2.3 | 3.1 | 5.2 | 0.8 | 4.6 | 2.1 | 1.7
